Measured values published in ChEMBL document CHEMBL5154926, “Discovery of a Novel Series of Imipridone Compounds as Homo sapiens Caseinolytic Protease P Agonists with Potent Antitumor Activities In Vitro and In Vivo” (J Med Chem, 2022).
pEC50, pIC50: −log10 of the molar value. Values after ≈ are worked out from the molar mass of the structure shown. Active and inactive are the calls of the source. The calls are words filed in the database; no cut-off is given here.

Tests used:
HCT-116 [1] = assay: cells; settings: Homo sapiens, HCT-116, 48 h
Description: Antiproliferative activity against human HCT-116 cells incubated for 48 hrs by CCK-8 assay

[2] = biological target: T1, ATP-dependent Clp protease proteolytic subunit, mitochondrial (Homo sapiens, UniProt Q16740); assay: Agonist activity at human CLpP (57 to 277 amino acids) expressed in Escherichia coli using fluorogenic peptide AC-WLA-AMC as substrate incubated for 10 mins by fluorescence based assay
SW480 = assay: cells; settings: Homo sapiens, SW480, 48 h
Description: Antiproliferative activity against human SW480 cells incubated for 48 hrs by CCK-8 assay

SW-620 = assay: cells; settings: Homo sapiens, SW-620, 48 h
Description: Antiproliferative activity against human SW-620 cells incubated for 48 hrs by CCK-8 assay

HT-29 = assay: cells; settings: Homo sapiens, HT-29, 48 h
Description: Antiproliferative activity against human HT-29 cells incubated for 48 hrs by CCK-8 assay

DLD-1 = assay: cells; settings: Homo sapiens, DLD-1, 48 h
Description: Antiproliferative activity against human DLD-1 cells incubated for 48 hrs by CCK-8 assay

HCT-15 = assay: cells; settings: Homo sapiens, HCT-15, 48 h
Description: Antiproliferative activity against human HCT-15 cells incubated for 48 hrs by CCK-8 assay

[3] = Stability in human liver microsomes assessed as intrinsic clearance at 1.5 uM measured upto 90 mins in presence of NADPH by LC/MS analysis; assay type: ADME, Microsome; settings: read-out: CLH
[4] = Stability in human liver microsomes assessed as half life at 1.5 uM measured upto 90 mins in presence of NADPH by LC/MS analysis; assay type: ADME, Microsome; settings: microsomes, 1.5 h, 1.5 µM
[5] = Stability in rat liver microsomes assessed as half life at 1.5 uM measured upto 90 mins in presence of NADPH by LC/MS analysis; assay type: ADME, Microsome; settings: 1.5 h
Homo sapiens [6] = species: Homo sapiens; settings: filed as agonist
Description: Binding affinity to human CLpP Y138F/Q107A double mutant assessed as change in enthalpy by ITC method

[7] = biological target: T1, ATP-dependent Clp protease proteolytic subunit, mitochondrial; settings: filed as agonist
Description: Binding affinity to human CLpP assessed as change in enthalpy by ITC method

Homo sapiens [8] = species: Homo sapiens; settings: filed as agonist; remark: listed apart in the source
Description: Binding affinity to human CLpP Y138F/Q107A double mutant assessed as change in entropy by ITC method

[9] = biological target: T1, ATP-dependent Clp protease proteolytic subunit, mitochondrial; settings: filed as agonist, dose 100.0 µM, time 30.0 min
HCT-116 [10] = settings: Homo sapiens, dose 12.5-50 nM, time 14.0 day
[11] = biological target: T1, ATP-dependent Clp protease proteolytic subunit, mitochondrial; settings: filed as agonist; remark: listed apart in the source
Description: Binding affinity to human CLpP assessed as change in entropy by ITC method

[12] = Tmax in Sprague-Dawley rat plasma at 15 mg/kg, po after 0.25 to 24 hrs by LC-MS analysis; assay type: ADME, organism-based; settings: time 0.25-24 hrs
[13] = MRT (0 to 24 hrs) in Sprague-Dawley rat plasma at 5 mg/kg, iv after 0.083 to 24 hrs by LC-MS analysis; assay type: ADME, organism-based; settings: time 0.083-24 hrs
in vivo [14] = settings: Sprague-Dawley, rat, in vivo, po, 15 mg/kg
[15] = Terminal half life in Sprague-Dawley rat plasma at 15 mg/kg, po after 0.25 to 24 hrs by LC-MS analysis; assay type: ADME, organism-based; settings: time 0.25-24 hrs, read-out: beta t1/2 (converted)
[16] = Terminal half life in Sprague-Dawley rat plasma at 5 mg/kg, iv after 0.083 to 24 hrs by LC-MS analysis; assay type: ADME, organism-based; settings: time 0.083-24 hrs, read-out: beta t1/2 (converted)
[17] = Cmax in Sprague-Dawley rat plasma at 5 mg/kg, iv after 0.083 to 24 hrs by LC-MS analysis; assay type: ADME, organism-based; set-up: dose 5 mg/kg, time 0.083-24 hrs, route iv
[18] = MRT (0 to 24 hrs) in Sprague-Dawley rat plasma at 15 mg/kg, po after 0.25 to 24 hrs by LC-MS analysis; assay type: ADME, organism-based; settings: time 0.25-24 hrs
[19] = Clearance in Sprague-Dawley rat plasma at 5 mg/kg, iv after 0.083 to 24 hrs by LC-MS analysis; assay type: ADME, organism-based; settings: time 0.083-24 hrs
[20] = Oral bioavailability in Sprague-Dawley rat plasma at 15 mg/kg after 0.25 to 24 hrs by LC-MS analysis; assay type: ADME, organism-based; settings: time 0.25-24 hrs
[21] = Cmax in Sprague-Dawley rat plasma at 15 mg/kg, po after 0.25 to 24 hrs by LC-MS analysis; assay type: ADME, organism-based; set-up: time lower 0.25 hrs, dose 15 mg/kg, time upper 24 hrs, route po
in vivo [22] = settings: Sprague-Dawley, rat, in vivo, iv, 5 mg/kg
[23] = 1-octanol/water partition coefficient, log P of the compound agitated for 4 hrs measured by shake flask assay based HPLC analysis; assay type: physicochemical
[24] = Aqueous solubility of the compound agitated for 24 hrs by HPLC analysis; assay type: physicochemical; settings: buffer

T1 sequence (Q16740 whole entry, the tested form may be a part): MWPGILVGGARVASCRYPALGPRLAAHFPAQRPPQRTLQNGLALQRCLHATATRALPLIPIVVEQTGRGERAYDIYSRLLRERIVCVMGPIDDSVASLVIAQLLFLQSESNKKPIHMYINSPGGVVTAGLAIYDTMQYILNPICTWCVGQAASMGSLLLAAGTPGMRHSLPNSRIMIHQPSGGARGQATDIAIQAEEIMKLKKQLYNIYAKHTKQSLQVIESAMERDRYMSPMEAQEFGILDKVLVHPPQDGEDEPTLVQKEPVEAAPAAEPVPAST

| SMILES | pIC50 (HCT-116 [1]) | pEC50 [2] | also measured |
| --- | --- | --- | --- |
| O=c1nc2n(c3c1CN(Cc1ccccc1)CC3)CCN2Cc1cccnc1 | < 5.00 | 5.98 | – |
| COc1ccc(CN2CCn3c2nc(=O)c2c3CCN(Cc3ccccc3)C2)cc1 | 5.94 | 6.30 | – |
| Cc1ccccc1CN1CCn2c1nc(=O)c1c2CCN(CCc2ccccc2)C1 | 5.22 | 5.96 | – |
| O=c1nc2n(c3c1CN(Cc1ccccc1)CC3)CCN2Cc1ccco1 | < 5.00 | 5.75 | – |
| Cc1ccccc1CN1CCCn2c1nc(=O)c1c2CCN(Cc2ccccc2)C1 | < 5.00 | 5.45 | – |
| O=c1nc2n(c3c1CN(Cc1ccccc1)CC3)CCN2Cc1ccncc1 | < 5.00 | 5.95 | – |
| Cc1ccccc1CN1CCn2c1nc(=O)c1c2CCN(Cc2ccc(F)c(F)c2)C1 | 5.30 | 6.49 | – |
| Cc1ccccc1CN1CCn2c1nc(=O)c1c2CCN(Cc2ccccc2C#N)C1 | < 5.00 | 6.18 | – |
| Cc1ccccc1CN1CCn2c1nc(=O)c1c2CCN(CC2CC2)C1 | < 5.00 | < 5.00 | – |
| O=c1nc2n(c3c1CN(Cc1ccccc1)CC3)CCN2Cc1ccc(Br)c(F)c1 | 6.96 | 6.68 | – |
| O=c1nc2n(c3c1CN(Cc1ccccc1)CC3)CCN2Cc1ccccc1 | 6.28 | 6.92 | – |
| Cc1ccccc1CN1CCn2c1nc(=O)c1c2CCN(Cc2ccc(F)cc2)C1 | 5.00 | 6.19 | – |
| Cc1ccccc1CN1CCn2c1nc(=O)c1c2CCN(C(=O)Cc2ccccc2)C1 | < 5.00 | < 5.00 | – |
| CCN1CCn2c1nc(=O)c1c2CCN(Cc2ccccc2)C1 | < 5.00 | < 5.00 | – |
| Cc1ccccc1CN1CCn2c1nc(=O)c1c2CCN(C(=O)c2ccccc2)C1 | < 5.00 | < 5.00 | – |
| Cc1cccc(CN2CCc3c(c(=O)nc4n3CCN4Cc3ccccc3C)C2)c1 | 5.82 | 6.29 | – |
| O=c1nc2n(c3c1CN(Cc1ccccc1)CC3)CCN2Cc1cccc(Cl)c1 | 6.72 | 6.55 | – |
| O=c1nc2n(c3c1CN(Cc1ccccc1)CC3)CCN2Cc1cccc(Br)c1 | 6.21 | 6.44 | – |
| O=c1nc2n(c3c1CN(Cc1ccccc1)CC3)CCN2c1ccccc1 | < 5.00 | 5.98 | – |
| CC(C)CCN1CCn2c1nc(=O)c1c2CCN(Cc2ccccc2)C1 | 5.38 | 6.35 | – |
| Cc1ccccc1CN1CCn2c1nc(=O)c1c2CCN(Cc2cccnc2)C1 | < 5.00 | 5.79 | – |
| Cc1ccccc1CN1CCn2c1nc(=O)c1c2CCN(Cc2ccc(F)cc2F)C1 | < 5.00 | 6.01 | – |
| O=c1nc2n(c3c1CN(Cc1ccccc1)CC3)CCN2Cc1ccc(F)c(F)c1 | 7.00 | 6.52 | pIC50 (SW480): 6.92; pIC50 (SW-620): 6.82; pIC50 (HT-29): 7.30; pIC50 (DLD-1): 6.82; pIC50 (HCT-15): 6.70 |
| O=c1nc2n(c3c1CN(Cc1ccccc1)CC3)CCN2Cc1ccc2ccccc2c1 | 6.51 | 6.44 | – |
| Cc1ccccc1CN1CCn2c1nc(=O)c1c2C(F)(F)CN(Cc2ccccc2)C1 | 5.29 | 6.30 | – |
| O=c1nc2n(c3c1CN(Cc1ccccc1)CC3)CCN2Cc1ccc(C(F)(F)F)cc1 | 6.49 | 6.54 | – |
| CCN1CCc2c(c(=O)nc3n2CCN3Cc2ccccc2C)C1 | < 5.00 | < 5.00 | – |

| SMILES | pIC50 (HCT-116 [1]) | pEC50 [2] | also measured |
| --- | --- | --- | --- |
| O=c1nc2n(c3c1CN(Cc1ccccc1)CC3)CCN2CCc1ccccc1 | < 5.00 | 6.38 | – |
| Cc1ccccc1CN1CCn2c1nc(=O)c1c2CCN(CC2CCCCC2)C1 | < 5.00 | 5.62 | – |
| Cc1ccc(CN2CCn3c2nc(=O)c2c3CCN(Cc3ccccc3)C2)cc1 | 6.68 | 6.49 | – |
| O=c1nc2n(c3c1CN(Cc1ccccc1)CC3)CCN2Cc1ccccc1F | 6.54 | 6.36 | – |
| O=c1nc2n(c3c1CN(Cc1ccccc1)CC3)CCN2Cc1ccc(Cl)cc1 | 7.10 | 6.52 | pIC50 (SW480): 7.00; pIC50 (SW-620): 6.77; pIC50 (HT-29): 7.15; pIC50 (DLD-1): 7.00; pIC50 (HCT-15): 6.60 |
| Cc1ccccc1CN1CCn2c1nc(=O)c1c2CCN(Cc2cccc(C#N)c2)C1 | 6.30 | 6.24 | – |
| Cc1cccc(CN2CCn3c2nc(=O)c2c3CCN(Cc3ccccc3)C2)c1 | 6.52 | 6.41 | – |
| O=C(c1ccc(F)cc1)C1CCN(CCn2c(=O)[nH]c3ccccc3c2=O)CC1 [KETANSERIN] | – | – | CLint scaled at 1.5 µM [3]: 51.1 mL/min/kg; t1/2 [4]: 34 min; t1/2 [5]: 18.5 min |
| O=c1nc2n(c3c1CN(Cc1ccccc1)CC3)CCN2Cc1ccc(F)cc1 | 7.10 | 6.89 | pIC50 (SW480): 6.77; pIC50 (SW-620): 6.72; pIC50 (HT-29): 6.40; pIC50 (DLD-1): 7.05; pIC50 (HCT-15): 6.68 |
| Cc1ccccc1CN1CCn2c1nc(=O)c1c2CCN(CC(C)C)C1 | < 5.00 | < 5.00 | – |
| O=c1nc2n(c3c1CN(Cc1ccccc1)CC3)CCN2CC1CCCCC1 | 5.61 | 6.89 | – |
| O=c1nc2n(c3c1CN(Cc1ccccc1)CC3)CCN2Cc1ccccc1Cl | 6.51 | 6.72 | – |
| O=c1nc2n(c3c1CN(Cc1ccccc1)CC3)CCN2Cc1cccc(F)c1 | 6.66 | 6.59 | – |
| COc1cccc(CN2CCn3c2nc(=O)c2c3CCN(Cc3ccccc3)C2)c1 | 5.92 | 7.00 | – |
| Cc1ccccc1CN1CCn2c1nc(=O)c1c2CCN(c2nncs2)C1 | < 5.00 | < 5.00 | – |
| O=c1nc2n(c3c1CN(Cc1ccccc1)CC3)CCN2Cc1ccc(Br)cc1 | 6.26 | 6.40 | – |
| COc1ccccc1CN1CCn2c1nc(=O)c1c2CCN(Cc2ccccc2)C1 | 5.87 | 6.96 | – |
| CN1CCn2c1nc(=O)c1c2CCN(Cc2ccccc2)C1 | < 5.00 | < 5.00 | – |
| O=c1nc2n(c3c1CN(Cc1ccccc1)CC3)CCN2Cc1ccc(F)c(Br)c1 | – | – | deltaH (Homo sapiens [6]): -2.73 kcal/mol; deltaH [7]: -14.9 kcal/mol; deltaS (Homo sapiens [8]): 54.3 J/mol.K; ΔTm [9]: 20.9 °C; inhibition (HCT-116 [10]): Active; deltaS [11]: -77.4 J/mol.K |
| Cc1ccccc1CN1C(=O)C2=C(CCN(Cc3ccccc3)C2)N2CCN=C12.Cl.Cl.O | – | – | Tmax [12]: 25.2 min; MRT last [13]: 51.6 min; AUC(0-t) (in vivo [14]): 894 ng·h/mL; half-life [15]: 63 min; half-life [16]: 54.6 min; Cmax [17]: 2770 ng/mL; MRT last [18]: 87.6 min; clearance [19]: 42.7 mL/min/kg; bioavailability [20]: 15.2%; Cmax [21]: 566 ng/mL; AUC(0-t) (in vivo [22]): 1960 ng·h/mL |
| O=c1nc2n(c3c1CN(Cc1ccccc1)CC3)CCN2Cc1ccc(F)cc1F | 7.00 | 6.80 | pIC50 (SW480): 6.92; pIC50 (SW-620): 7.05; pIC50 (HT-29): 7.10; pIC50 (DLD-1): 7.05; pIC50 (HCT-15): 6.92 |
| Cc1ccccc1CN1C(=O)C2=C(CCN(Cc3ccccc3)C2)N2CCN=C12 [DORDAVIPRONE] | – | – | logP at 4 h [23]: 2.93; CLint scaled at 1.5 µM [3]: 187 mL/min/kg; solubility at 24 h [24]: 200 µM (≈ 77.4 µg/mL); t1/2 [5]: 10.5 min |
| Cc1ccccc1CN1CCn2c1nc(=O)c1c2CCN(CCCCc2ccccc2)C1 | < 5.00 | < 5.00 | – |
| Cc1ccc(CN2CCc3c(c(=O)nc4n3CCN4Cc3ccccc3C)C2)cc1 | 5.27 | 6.19 | – |
| Cc1ccccc1CN1CCn2c1nc(=O)c1c2CCN(Cc2ccncc2)C1 | < 5.00 | 5.79 | – |
| O=c1nc2n(c3c1CN(Cc1ccccc1)CC3)CCN2CC1CC1 | < 5.00 | 5.91 | – |
